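Method: 48-hour compound exposure of cells in 96-well plates, five concentrations, linear interpolation of endpoints. At the GI50, growth is halved.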 Calls of active or inactive are those of the source. Cut-off read from the data, not from the text of the source: active = GI50 up to about 1.1 µM and inactive = higher.
Columns and labels:
Assay in all cases: DTP human tumour cell line panel, 48 h
SF-539 = test system: SF-539
OVCAR-3 = test system: OVCAR-3
HL-60 = test system: HL-60
HCT-116 = test system: HCT-116
NCI-H23 = test system: NCI-H23
SNB-75 = test system: SNB-75
A498 = test system: A498
UACC-62 = test system: UACC-62
SN12C = test system: SN12C
HCT-15 = test system: HCT-15
LOX IMVI = test system: LOX IMVI
M14 = test system: M14
NCI-H460 = test system: NCI-H460
TK-10 = test system: TK-10
COLO 205 = test system: COLO 205
CAKI-1 = test system: CAKI-1
NCI-H226 = test system: NCI-H226

Row | SMILES | GI50 (SF-539) | GI50 (OVCAR-3) | GI50 (HL-60) | GI50 (HCT-116) | GI50 (NCI-H23) | GI50 (SNB-75) | GI50 (A498) | GI50 (UACC-62) | GI50 (SN12C) | GI50 (HCT-15) [µM] | GI50 (LOX IMVI) | GI50 (M14) | GI50 (NCI-H460) | GI50 (TK-10) | GI50 (COLO 205) | GI50 (CAKI-1) | GI50 (NCI-H226)
1 | C=CCN(N=O)C(=O)ON1C(=O)CCC1=O | > 100 µM (inactive) | > 100 µM (inactive) | > 100 µM (inactive) | > 100 µM (inactive) | > 100 µM (inactive) | 75.9 µM (inactive) | > 100 µM (inactive) | > 100 µM (inactive) | > 100 µM (inactive) | > 100 | > 100 µM (inactive) | > 100 µM (inactive) | > 100 µM (inactive) | > 100 µM (inactive) | > 100 µM (inactive) |  | 
2 | CCC(C)c1cccc(C)c1NC(=O)C(=O)Cc1nc2ccccc2s1 (centres undefined) | > 100 µM (inactive) | > 100 µM (inactive) | > 100 µM (inactive) | > 100 µM (inactive) | > 100 µM (inactive) | > 100 µM (inactive) | > 100 µM (inactive) | > 100 µM (inactive) | > 100 µM (inactive) | > 100 | > 100 µM (inactive) | > 100 µM (inactive) | > 100 µM (inactive) | > 100 µM (inactive) | > 100 µM (inactive) | > 100 µM (inactive) | 
3 | C/C=C1/C=CC2c3[nH]c4ccccc4c3CCN2C1 (centres undefined) | > 400 µM (inactive) | 116 µM (inactive) | > 400 µM (inactive) | 223 µM (inactive) | > 400 µM (inactive) |  |  | > 400 µM (inactive) | > 400 µM (inactive) | > 400 | > 400 µM (inactive) |  | > 400 µM (inactive) | > 400 µM (inactive) | > 400 µM (inactive) | > 400 µM (inactive) | 358 µM (inactive)
4 | Cn1nc(-c2ccccc2)c2c(/C=C/c3ccc(F)cc3)onc2c1=O | 61.9 µM (inactive) |  | 5.92 µM (inactive) | 9.59 µM (inactive) | 19 µM (inactive) |  |  | > 100 µM (inactive) | 88.1 µM (inactive) | 39.5 | 90.4 µM (inactive) | > 100 µM (inactive) | > 100 µM (inactive) | 90.6 µM (inactive) | > 100 µM (inactive) | 27.4 µM (inactive) | 
5 | Cc1cc(Cl)cc2c1NC(=O)C2=O.O=C(c1ccccc1)C(F)(F)F | 47.9 µM (inactive) | 35.3 µM (inactive) |  | 59.8 µM (inactive) | > 100 µM (inactive) | 41.1 µM (inactive) | > 100 µM (inactive) | 19.9 µM (inactive) | 54 µM (inactive) | 64.4 | 15.3 µM (inactive) | 67 µM (inactive) | 70.5 µM (inactive) | 57.5 µM (inactive) | 57.7 µM (inactive) | 39.3 µM (inactive) | > 100 µM (inactive)

Reference: ChEMBL document CHEMBL1201862, “PubChem BioAssay data set” (2004)
